Consider 55 compounds from ChEMBL document CHEMBL1157845, “Structure-activity relationship of new anti-tuberculosis agents derived from oxazoline and oxazole benzyl esters” (Eur J Med Chem, 2010).

In brackets after ≈: the same amount, converted by molar mass. Activity calls are given as the source filed them.

The subject of test [1] is Mycobacterium tuberculosis. Kind of test: Antimycobacterial activity against Mycobacterium tuberculosis H37Rv ATCC 27294 in GAST medium after 1 week by microplate alamar blue assay. It counts as functional. Conditions: H37Rv ATCC 27294, 168 h. (The colour change of resazurin is a common sign of viable cells or microbes.)
Test [2] deals with Mycobacterium tuberculosis. Kind of test: Antimycobacterial activity against Mycobacterium tuberculosis Erdman infected in BALB/c mouse assessed as reduction of bacterial load at 200 mg/kg, po qd for 5 days per week administered 60 days after infection measured after 85 days post infection. On the set-up: dose 200 mg/kg. It counts as functional, organism-based.
Test [3] has as its system Mycobacterium tuberculosis. Put plainly: Antimycobacterial activity against Mycobacterium tuberculosis H37Rv ATCC 27294 in GAS medium after 1 week by microplate alamar blue assay. It counts as functional. Conditions: H37Rv ATCC 27294, 168 h.

As usually defined, the MIC is the smallest concentration in the dilution series that meets the test's criterion for growth inhibition. A higher MIC goes with a less susceptible organism.

For the compound `Cc1ccc(C2=N[C@H](C(=O)OCc3ccccc3)CO2)cc1`, the values for the MIC in test [1] and in test [3] were 27.3 µM (≈ 8.06 µg/mL) and 15.5 µM (≈ 4.58 µg/mL), respectively. Besides, the result in test [2] was inactive.
In the case of `N#Cc1cccc(C2=N[C@H](C(=O)OCc3ccccc3)CO2)c1`, the results for the MIC in test [1] and in test [3] were 75.1 µM (≈ 23 µg/mL) and 47.2 µM (≈ 14.5 µg/mL), respectively. The outcome in test [2] was inactive.
The corresponding values for `O=C(OCc1ccccc1)[C@@H]1COC(c2cccnc2Sc2ccccc2)=N1` are 13.4 µM (≈ 5.23 µg/mL), 17.8 µM (≈ 6.95 µg/mL) and “inactive”.
The corresponding values for `O=C(OCc1ccccc1)[C@@H]1COC(c2ccc([N+](=O)[O-])cc2F)=N1` are 8.7 µM (≈ 3 µg/mL), 13 µM (≈ 4.48 µg/mL) and “inactive”.
In the same order, the values of `O=C(OCc1ccccc1)[C@@H]1COC(c2ccc(F)cc2[N+](=O)[O-])=N1` are 40.4 µM (≈ 13.9 µg/mL), 30.7 µM (≈ 10.6 µg/mL) and “inactive”.
`C[C@@H]1OC(c2ccccc2)=N[C@@H]1C(=O)O`: the MIC in test [1] and in test [3] was greater than 128 µM throughout. Further, the result in test [2] was inactive.
On to `COc1ccc(CC2=N[C@H](C(=O)OCc3ccccc3)CO2)cc1`, for which the MIC in test [1] and in test [3] was greater than 128 µM in each case. Besides, the result in test [2] was inactive.
With `COC(=O)[C@H]1N=C(c2ccccc2)O[C@H]1C`, the MIC in test [1] and in test [3] was greater than 128 µM each time. For the same compound, the outcome in test [2] was inactive.
With `O=C(OCc1ccccc1)c1coc(-c2ccc(Cl)c(F)c2)n1`, the MIC in test [1] turned out to be 22.4 µM (≈ 7.43 µg/mL); in test [3] it was 2.87 µM (≈ 0.952 µg/mL). The outcome in test [2] was inactive.
In the same order, the values of `O=C(OCc1ccccc1)c1coc(-c2cccnc2)n1` are 6.2 µM (≈ 1.74 µg/mL), 3.82 µM (≈ 1.07 µg/mL) and “inactive”.
In the same order, the values of `O=C(OCc1ccccc1)c1coc(-c2ccc(OCc3ccccc3)c(F)c2)n1` are 3.86 µM (≈ 1.56 µg/mL), 3.03 µM (≈ 1.22 µg/mL) and “inactive”.
On to `COc1ccccc1-c1nc(C(=O)OCc2ccccc2)co1`, for which the results for the MIC in test [1] and in test [3] were 7.54 µM (≈ 2.33 µg/mL) and 3.88 µM (≈ 1.2 µg/mL), respectively. The outcome in test [2] was inactive.
In the same order, the values of `Cc1oc(-c2ccccc2O)nc1C(=O)O` are greater than 128 µM, greater than 128 µM and “inactive”.
In the same order, the values of `COc1ccc(C2=N[C@H](C(=O)OCc3ccccc3)CO2)cc1OC` are 21.6 µM (≈ 7.37 µg/mL), 39 µM (≈ 13.3 µg/mL) and “inactive”.
As to `O=C(OCc1ccccc1)c1coc(-c2cccnc2Sc2ccccc2)n1`, the MIC in test [1] was greater than 128 µM; in test [3], 8 µM (≈ 3.11 µg/mL). Further, the result in test [2] was inactive.
The corresponding values for `CC(C)Oc1ccc(-c2nc(C(=O)OCc3ccccc3)co2)cc1` are 3.21 µM (≈ 1.08 µg/mL), 1.95 µM (≈ 0.658 µg/mL) and “inactive”.
The corresponding values for `O=C(OCc1ccccc1)[C@@H]1COC(c2cccc(Br)c2)=N1` are 52.5 µM (≈ 18.9 µg/mL), 24.2 µM (≈ 8.72 µg/mL) and “inactive”.
In the same order, the values of `CCCOc1ccc(C2=N[C@H](C(=O)OCc3ccccc3)CO2)cc1` are 22.4 µM (≈ 7.6 µg/mL), 2.97 µM (≈ 1.01 µg/mL) and “inactive”.
As to `CCOc1ccc(C2=N[C@H](C(=O)OCc3ccccc3)CO2)cc1`, the MIC in test [1] is 30.5 µM (≈ 9.92 µg/mL); in test [3] it was 60.6 µM (≈ 19.7 µg/mL). Moreover, the outcome in test [2] was inactive.
The corresponding values for `O=C(OCc1ccccc1)[C@@H]1COC(c2cccnc2)=N1` are 92.9 µM (≈ 26.2 µg/mL), 53.3 µM (≈ 15 µg/mL) and “inactive”.
The corresponding values for `O=C(OCc1ccccc1)[C@@H]1COC(c2cccnc2Oc2ccccc2)=N1` are greater than 128 µM, 58.8 µM (≈ 22 µg/mL) and “inactive”.
On to `O=C(O)[C@@H]1COC(c2cccc(Cl)c2)=N1`, for which the MIC in test [1] is 106 µM (≈ 23.9 µg/mL); in test [3], greater than 128 µM. Moreover, the outcome in test [2] was inactive.
As to `O=C(OCc1ccccc1)c1coc(-c2ccccn2)n1`, the MIC in test [1] worked out at 2.47 µM (≈ 0.692 µg/mL); in test [3], 2 µM (≈ 0.561 µg/mL). Also, the outcome in test [2] was inactive.
In the same order, the values of `O=C(OCc1ccccc1)[C@@H]1COC(c2cncc(-c3ccccc3)c2)=N1` are 29.8 µM (≈ 10.7 µg/mL), 12.5 µM (≈ 4.48 µg/mL) and “inactive”.
`O=C(OCc1ccccc1)[C@@H]1COC(c2ccccc2Cl)=N1`: the MIC in test [1] was 15.2 µM (≈ 4.8 µg/mL); in test [3] it was 49.9 µM (≈ 15.8 µg/mL). Besides, the result in test [2] was inactive.
In the same order, the values of `Nc1ccc(C2=N[C@H](C(=O)OCc3ccccc3)CO2)cc1` are 26.8 µM (≈ 7.94 µg/mL), 25.4 µM (≈ 7.53 µg/mL) and “inactive”.
The corresponding values for `O=C(OCc1ccccc1)c1coc(-c2cccc(Br)c2)n1` are 6.08 µM (≈ 2.18 µg/mL), 1.93 µM (≈ 0.691 µg/mL) and “inactive”.
In the same order, the values of `CCCCOc1ccc(-c2nc(C(=O)OCc3ccccc3)co2)cc1` are 3.83 µM (≈ 1.35 µg/mL), 1.76 µM (≈ 0.618 µg/mL) and “inactive”.
In the case of `COc1ccccc1C1=N[C@H](C(=O)OCc2ccccc2)CO1`, the MIC was determined as 29.2 µM (≈ 9.09 µg/mL) in test [1] and 37 µM (≈ 11.5 µg/mL) in test [3]. The outcome in test [2] was inactive.
With `O=C(OCc1ccccc1)[C@@H]1COC(c2cnccn2)=N1`, the results for the MIC in test [1] and in test [3] were greater than 128 µM and 61.2 µM (≈ 17.3 µg/mL), respectively. Further, the outcome in test [2] was inactive.
In the same order, the values of `O=C(O)[C@@H]1COC(c2ccccc2)=N1` are greater than 128 µM, greater than 128 µM and “inactive”.
In the same order, the values of `O=C(OCc1ccccc1)[C@@H]1COC(c2ccccn2)=N1` are 127 µM (≈ 35.9 µg/mL), 110 µM (≈ 31.1 µg/mL) and “inactive”.
In the case of `O=C(OCc1ccccc1)[C@@H]1COC(c2cncc(Br)c2)=N1`, the MIC in test [1] was determined as 26.6 µM (≈ 9.61 µg/mL); in test [3] it was 27.6 µM (≈ 9.97 µg/mL). Besides, the result in test [2] was inactive.
For the compound `Cc1ccc(-c2nc(C(=O)OCc3ccccc3)co2)cn1`, the MIC in test [1] is 10.2 µM (≈ 3 µg/mL); in test [3], 3.01 µM (≈ 0.886 µg/mL). The result in test [2] was inactive.
The corresponding values for `CCOc1ccc(C2=N[C@H](C(=O)OCc3ccccc3)CO2)cc1F` are 3.91 µM (≈ 1.34 µg/mL), 50.5 µM (≈ 17.3 µg/mL) and “inactive”.
Turning to `O=C(OCc1ccccc1)[C@@H]1COC(c2ccncc2)=N1`, the MIC in test [1] amounted to 81.3 µM (≈ 23 µg/mL); in test [3], 55.6 µM (≈ 15.7 µg/mL). The result in test [2] was inactive.
The corresponding values for `COC(=O)[C@@H]1COC(c2cccc(Cl)c2)=N1` are 68.7 µM (≈ 16.5 µg/mL), greater than 128 µM and “inactive”.
In the same order, the values of `O=C(OCc1ccccc1)[C@@H]1COC(c2ccc(Br)nc2)=N1` are 21.1 µM (≈ 7.62 µg/mL), 22.9 µM (≈ 8.27 µg/mL) and “inactive”.
`COC(=O)[C@@H]1COC(c2ccccc2O)=N1`: the minimal inhibitory concentration (MIC) in test [1] and in test [3] was greater than 128 µM in each case. For the same compound, in test [2], the outcome was inactive.
Consider `CC(C)Oc1ccc(C2=N[C@H](C(=O)OCc3ccccc3)CO2)cc1`, for which the MIC in test [1] is 14.9 µM (≈ 5.06 µg/mL); in test [3], 3.2 µM (≈ 1.09 µg/mL). In addition, the outcome in test [2] was inactive.
For `O=C(OCc1ccccc1)[C@@H]1COC(c2cccc(Cl)c2OCc2ccccc2)=N1`, the MIC came out at 34 µM (≈ 14.3 µg/mL) in test [1] and 6.3 µM (≈ 2.66 µg/mL) in test [3]. For the same compound, the result in test [2] was inactive.
In the same order, the values of `COc1cccc(-c2nc(C(=O)OCc3ccccc3)co2)c1` are 3.76 µM (≈ 1.16 µg/mL), 6.04 µM (≈ 1.87 µg/mL) and “inactive”.
The corresponding values for `C[C@@H]1OC(c2ccccc2OCc2ccccc2)=N[C@@H]1C(=O)OCc1ccccc1` are greater than 128 µM, greater than 128 µM and “inactive”.
In the same order, the values of `COc1ccc(-c2nc(C(=O)OCc3ccccc3)co2)cc1OC` are 17.5 µM (≈ 5.94 µg/mL), 16 µM (≈ 5.43 µg/mL) and “inactive”.
`COc1ccc(CNC(=O)c2coc(-c3cccc(Cl)c3)n2)cc1OC`: the MIC came out at 48.1 µM (≈ 17.9 µg/mL) in test [1] and 118 µM (≈ 44 µg/mL) in test [3]. In addition, in test [2], the result was inactive.
The corresponding values for `Cc1oc(-c2ccccc2)nc1C(=O)O` are greater than 128 µM, greater than 128 µM and “inactive”.
In the same order, the values of `O=C(OCc1ccccc1)c1coc(-c2cnccn2)n1` are 22.5 µM (≈ 6.33 µg/mL), 7.32 µM (≈ 2.06 µg/mL) and “inactive”.
The corresponding values for `O=C(OCc1ccccc1)[C@@H]1COC(Cc2ccccc2)=N1` are greater than 128 µM, greater than 128 µM and “inactive”.
With `O=C(OCc1ccccc1)c1coc(-c2cccnc2Oc2ccccc2)n1`, the MIC is 91.4 µM (≈ 34 µg/mL) in test [1] and 6.86 µM (≈ 2.55 µg/mL) in test [3]. Moreover, the result in test [2] was inactive.
In the same order, the values of `O=C(OCc1ccccc1)[C@@H]1COC(c2cccc(F)c2)=N1` are 6.86 µM (≈ 2.05 µg/mL), 60.7 µM (≈ 18.2 µg/mL) and “inactive”.
Regarding `O=C(OCc1ccccc1)[C@@H]1COC(c2ccc([N+](=O)[O-])cc2OCc2ccccc2)=N1`, the MIC came to 4.86 µM (≈ 2.1 µg/mL) in test [1] and 15.6 µM (≈ 6.75 µg/mL) in test [3]. In addition, in test [2], the result was inactive.
The corresponding values for `O=C(O)[C@@H]1COC(c2ccccc2O)=N1` are greater than 128 µM, greater than 128 µM and “inactive”.
In the same order, the values of `O=C(OCc1ccccc1)c1coc(-c2ccncc2)n1` are 6.1 µM (≈ 1.71 µg/mL), 1.42 µM (≈ 0.398 µg/mL) and “inactive”.
Regarding `COc1ccc(C2=N[C@H](C(=O)OCc3ccccc3)CO2)cc1Cl`, the MIC came to 7.58 µM (≈ 2.62 µg/mL) in test [1] and 60.7 µM (≈ 21 µg/mL) in test [3]. Further, in test [2], the result was inactive.
In the same order, the values of `COC(=O)[C@@H]1COC(c2ccc([N+](=O)[O-])cc2)=N1` are greater than 128 µM, greater than 128 µM and “inactive”.
